Legend:
Assay in all cases: MTT assay, curcumin concentration killing 50% of cells
Type in all cases: cell-based
HT-29 = conditions: HT-29, human colorectal adenocarcinoma; mean±SD (n=6); read-out: curcumin concentration required for killing 50% of the cells
Experimental: (§1) In this experiment, whether the liposome has the capability of carrying drugs is observed by MTT assay. First, curcumin was added into cells at different concentrations, to obtain the curcumin concentration required for killing 50% of the cells. Next, the liposome with curcumin at different concentrations (curcumin-liposome) was sent into cells of the same type respectively, to obtain the curcumin concentration required for killing 50% of the cells. In Table 1, all the concentrations are expressed as mean±standard deviation (SD) (n=6).

LL-2 = conditions: LL-2, mouse lung carcinoma; mean±SD (n=6); read-out: curcumin concentration required for killing 50% of the cells
Experimental: as §1

CT-26 = conditions: CT26; CT-26, mouse colorectal adenocarcinoma; mean±SD (n=6); read-out: curcumin concentration required for killing 50% of the cells
Experimental: as §1

HepG2 = conditions: HepG2, human hepatocellular carcinoma; mean±SD (n=6); read-out: curcumin concentration required for killing 50% of the cells
Experimental: as §1

B16/F10 = conditions: B16/F10, mouse melanoma; mean±SD (n=6); read-out: curcumin concentration required for killing 50% of the cells
Experimental: as §1

A549 = conditions: A549, human lung carcinoma; mean±SD (n=6); read-out: curcumin concentration required for killing 50% of the cells
Experimental: as §1

JC = conditions: mouse breast adenocarcinoma, mean±SD (n=6), read-out: curcumin concentration required for killing 50% of the cells
Experimental: as §1

HeLa = conditions: human cervical cancer, mean±SD (n=6), read-out: curcumin concentration required for killing 50% of the cells
Experimental: as §1

COc1cc(/C=C/C(=O)CC(=O)/C=C/c2ccc(O)c(OC)c2)ccc1O [Curcumin, curcumin]
IC50 (HT-29): 12.9 ± 1.18 µM | IC50 (LL-2): 10.8 ± 2.33 µM | IC50 (CT-26): 7.92 ± 0.77 µM | IC50 (HepG2): 12.2 ± 1.11 µM | IC50 (B16/F10): 8.16 ± 1.01 µM | IC50 (A549): 30 ± 9.45 µM | IC50 (JC): 11 ± 1.47 µM | IC50 (HeLa): 17.7 ± 6.95 µM

— US8871251B2, “Liposome and method for producing the same” (Can Heal BioMediTech Corp., priority 2008, dated 2014)
